Reference: US6583265B1, “Cyclosporins” (C-Chem AG, priority 1998, dated 2003)
≈ marks a conversion by molar mass, not a printed value. Numbered stars: 1 amine (or outer) side, 2 acyl side, 3 side chain; on linkers, the order of the positions; unused ones are H or OH. Square brackets hold non-standard residues; d marks the D form. Peptide text beside a SMILES is read from it. MeBmt = C/C=C/C[C@@H](C)[C@@H](O)[C@H](NC)C(=O)O; NMeLeu(4-OH) = CN[C@@H](CC(C)(C)O)C(=O)O; X2 = CN(C(Sc1ccccn1)C(=O)[*:2])[*:1]; NMeL = CN[C@@H](CC(C)C)C(=O)O; NMeV = CN[C@H](C(=O)O)C(C)C; Abu = CC[C@H](N)C(=O)O

Assays:
[1] = Antiinflammatory activity, adjuvent arthritis test (Pearson); type: in vivo; conditions: oral, solutions in olive oil and tween 80
Experimental: The antiinflammatory activity of test compounds was determined by the adjuvent arthritis test described by Pearson, “Arthr. Rheum”, 1959, Vol. 2., 440. Test compounds were administered orally as solutions in olive oil and tween 80.

[2] = test system: HIV; type: cell-based
Excerpt: The inhibitory effect of test compounds on the HIV-induced cytopathic effect on the MT4 T cell line as described by R. Pauwels in J. Virol. Methods, 1988, Vol. 20, pp 309-321 was used.

[3] = molecular target: cyclophilin (Homo sapiens, UniProt P62937); assay: Test for cyclophilin binding (Fliri); conditions: ratio to cyclosporin A
Excerpt: To measure the affinity and inhibition of test compounds for cyclophilin, the test described by H. Fliri in “Antibiotics and Antiviral compounds”, 1993, Verlag Chemie, K.Krohn, H. A. Kirst, and H. Maag, eds., p 229-240 was used.

Chain of cyclophilin (P62937 whole entry): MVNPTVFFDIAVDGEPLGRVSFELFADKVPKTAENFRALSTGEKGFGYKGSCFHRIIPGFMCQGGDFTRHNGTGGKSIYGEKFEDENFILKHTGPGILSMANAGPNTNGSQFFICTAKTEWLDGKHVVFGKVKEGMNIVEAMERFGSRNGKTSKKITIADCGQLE

Structure (SMILES) | ED50, dose effective in reducing the joint swelling by 50% [1] | IC50 [2] | Relative IC50, i.e. IC50 (cyclosporin A)/IC50 (test compound) [3]
C/C=C/C[C@@H](C)[C@@H](O)[C@H]1C(=O)N[C@@H](C(C)C)C(=O)N(C)C(Sc2ccccn2)C(=O)N(C)[C@@H](CC(C)C)C(=O)N[C@@H](C(C)C)C(=O)N(C)[C@@H](CC(C)C)C(=O)N[C@@H](C)C(=O)N[C@H](C)C(=O)N(C)[C@@H](CC(C)C)C(=O)N(C)[C@@H](CC(C)C)C(=O)N(C)[C@@H](C(C)C)C(=O)N1C (stereo partly drawn) [Example 6, 3-(Pyridyl-2-thio)-2-valine-cyclosporin] (HELM PEPTIDE1{[C/C=C/C[C@@H](C)[C@@H](O)[C@@H](C(=O)[*:2])N(C)[*:1]].V.[CN(C(Sc1ccccn1)C(=O)[*:2])[*:1]].[meL].V.[meL].A.[dA].[meL].[meL].[meV]}$PEPTIDE1,PEPTIDE1,1:R1-11:R2$$$V2.0) | 25 mg/kg | 1 µg/mL (≈ 0.754 µM) | 0.2
C/C=C/C[C@@H](C)[C@@H](O)[C@H]1C(=O)N[C@@H](CC)C(=O)N(C)C(Sc2ccncc2)C(=O)N(C)[C@@H](CC(C)C)C(=O)N[C@@H](C(C)C)C(=O)N(C)[C@@H](CC(C)C)C(=O)N[C@@H](C)C(=O)N[C@H](C)C(=O)N(C)[C@@H](CC(C)C)C(=O)N(C)[C@@H](CC(C)C)C(=O)N(C)[C@@H](C(C)C)C(=O)N1C (stereo partly drawn) [Example 2, 3-(Pyridyl-4-thio)-cyclosporin A] (HELM PEPTIDE1{[C/C=C/C[C@@H](C)[C@@H](O)[C@@H](C(=O)[*:2])N(C)[*:1]].[Abu].[CN(C(Sc1ccncc1)C(=O)[*:2])[*:1]].[meL].V.[meL].A.[dA].[meL].[meL].[meV]}$PEPTIDE1,PEPTIDE1,1:R1-11:R2$$$V2.0) | 25 mg/kg | 1 µg/mL (≈ 0.762 µM) | 0.2
C/C=C/C[C@@H](C)[C@@H](O)[C@H]1C(=O)N[C@@H](CC)C(=O)N(C)C(Sc2ccccn2)C(=O)N(C)[C@@H](CC(C)(C)O)C(=O)N[C@@H](C(C)C)C(=O)N(C)[C@@H](CC(C)C)C(=O)N[C@@H](C)C(=O)N[C@H](C)C(=O)N(C)[C@@H](CC(C)C)C(=O)N(C)[C@@H](CC(C)C)C(=O)N(C)[C@@H](C(C)C)C(=O)N1C (stereo partly drawn) [Example 3, 3-(Pyridyl-2-thio)-4-(γ-hydroxy-methylleucine)-cyclosporin] (cyclo([MeBmt][Abu][X2][NMeLeu(4-OH)]V[NMeL]A[dA][NMeL][NMeL][NMeV])) | 25 mg/kg | 1 µg/mL (≈ 0.753 µM) | 0.2
C/C=C/C[C@@H](C)[C@@H](O)[C@H]1C(=O)N[C@@H](CC)C(=O)N(C)C(Sc2ccccn2)C(=O)N(C)[C@@H](CC(C)C)C(=O)N[C@@H](C(C)C)C(=O)N(C)[C@@H](CC(C)C)C(=O)N[C@@H](C)C(=O)N[C@H](C)C(=O)N(C)[C@@H](CC(C)C)C(=O)N(C)[C@@H](CC(C)C)C(=O)N(C)[C@@H](C(C)C)C(=O)N1C (stereo partly drawn) [Example 1, 3-(Pyridyl-2-thio)-cyclosporin] (HELM PEPTIDE1{[C/C=C/C[C@@H](C)[C@@H](O)[C@@H](C(=O)[*:2])N(C)[*:1]].[Abu].[CN(C(Sc1ccccn1)C(=O)[*:2])[*:1]].[meL].V.[meL].A.[dA].[meL].[meL].[meV]}$PEPTIDE1,PEPTIDE1,1:R1-11:R2$$$V2.0) | 25 mg/kg | 0.45 µg/mL (≈ 0.343 µM) | 0.2
C/C=C/C[C@@H](C)[C@@H](O)[C@H]1C(=O)N[C@@H](CC)C(=O)N(C)C(Sc2ccccc2)C(=O)N(C)[C@@H](CC(C)C)C(=O)N[C@@H](C(C)C)C(=O)N(C)[C@@H](CC(C)C)C(=O)N[C@@H](C)C(=O)N[C@H](C)C(=O)N(C)[C@@H](CC(C)C)C(=O)N(C)[C@@H](CC(C)C)C(=O)N(C)[C@@H](C(C)C)C(=O)N1C (stereo partly drawn) [Example 8, 3-(Phenylthio)-cyclosporin A] (HELM PEPTIDE1{[C/C=C/C[C@@H](C)[C@@H](O)[C@@H](C(=O)[*:2])N(C)[*:1]].[Abu].[CN(C(Sc1ccccc1)C(=O)[*:2])[*:1]].[meL].V.[meL].A.[dA].[meL].[meL].[meV]}$PEPTIDE1,PEPTIDE1,1:R1-11:R2$$$V2.0) | 25 mg/kg | 0.5 µg/mL (≈ 0.381 µM) | 0.4
C/C=C/C[C@@H](C)[C@@H](OC(C)=O)[C@H]1C(=O)N[C@@H](CC)C(=O)N(C)C(OC(C)=O)C(=O)N(C)[C@@H](CC(C)C)C(=O)N[C@@H](C(C)C)C(=O)N(C)[C@@H](CC(C)C)C(=O)N[C@@H](C)C(=O)N[C@H](C)C(=O)N(C)[C@@H](CC(C)C)C(=O)N(C)[C@@H](CC(C)C)C(=O)N(C)[C@@H](C(C)C)C(=O)N1C (stereo partly drawn) [Example 12, 3′,3-Diacetoxy-cyclosporin] | 15 mg/kg | 0.15 µg/mL (≈ 0.115 µM) | 1.5
C/C=C/C[C@@H](C)[C@@H](O)[C@H]1C(=O)N[C@@H](CC)C(=O)N(C)C(Sc2ccccn2)C(=O)N(C)[C@@H](C(C)C)C(=O)N[C@@H](C(C)C)C(=O)N(C)[C@@H](CC(C)C)C(=O)N[C@@H](C)C(=O)N[C@H](C)C(=O)N(C)[C@@H](CC(C)C)C(=O)N(C)[C@@H](CC(C)C)C(=O)N(C)[C@@H](C(C)C)C(=O)N1C (stereo partly drawn) [Example 4, 3-(Pyridyl-2-thio)-4-methylvaline-cyclosporin] (HELM PEPTIDE1{[C/C=C/C[C@@H](C)[C@@H](O)[C@@H](C(=O)[*:2])N(C)[*:1]].[Abu].[CN(C(Sc1ccccn1)C(=O)[*:2])[*:1]].[meV].V.[meL].A.[dA].[meL].[meL].[meV]}$PEPTIDE1,PEPTIDE1,1:R1-11:R2$$$V2.0) | 25 mg/kg | 1 µg/mL (≈ 0.771 µM) | 0.2
C/C=C/C[C@@H](C)[C@@H](O)[C@H]1C(=O)N[C@@H](CC)C(=O)N(C)C(Sc2ccccn2)C(=O)N(C)[C@@H](CC(C)C)C(=O)N[C@@H](C(C)C)C(=O)N(C)[C@@H](CC(C)C)C(=O)N[C@@H](C)C(=O)N[C@H](CO)C(=O)N(C)[C@@H](CC(C)C)C(=O)N(C)[C@@H](CC(C)C)C(=O)N(C)[C@@H](C(C)C)C(=O)N1C (stereo partly drawn) [Example 7, 3-(Pyridyl-2-thio)-8-(D)-serine-cyclosporin] (HELM PEPTIDE1{[C/C=C/C[C@@H](C)[C@@H](O)[C@@H](C(=O)[*:2])N(C)[*:1]].[Abu].[CN(C(Sc1ccccn1)C(=O)[*:2])[*:1]].[meL].V.[meL].A.[dS].[meL].[meL].[meV]}$PEPTIDE1,PEPTIDE1,1:R1-11:R2$$$V2.0) | 25 mg/kg | 1 µg/mL (≈ 0.753 µM) | 0.2
C/C=C/C[C@@H](C)[C@@H](O)[C@H]1C(=O)N[C@@H](CCC)C(=O)N(C)C(Sc2ccccn2)C(=O)N(C)[C@@H](CC(C)C)C(=O)N[C@@H](C(C)C)C(=O)N(C)[C@@H](CC(C)C)C(=O)N[C@@H](C)C(=O)N[C@H](C)C(=O)N(C)[C@@H](CC(C)C)C(=O)N(C)[C@@H](CC(C)C)C(=O)N(C)[C@@H](C(C)C)C(=O)N1C (stereo partly drawn) [Example 5, 3-(Pyridyl-2-thio)-2-norvaline-cyclosporin] (HELM PEPTIDE1{[C/C=C/C[C@@H](C)[C@@H](O)[C@@H](C(=O)[*:2])N(C)[*:1]].[Nva].[CN(C(Sc1ccccn1)C(=O)[*:2])[*:1]].[meL].V.[meL].A.[dA].[meL].[meL].[meV]}$PEPTIDE1,PEPTIDE1,1:R1-11:R2$$$V2.0) | 25 mg/kg | 1 µg/mL (≈ 0.754 µM) | 0.2
